Measured values reported in ChEMBL document CHEMBL3885881, “DrugMatrix”.

Species on record: Rattus norvegicus
Test: DrugMatrix - Regimen: Daily Repeat
Type: toxicity, organism-based, Sprague-Dawley
Parameters: regimen Daily Repeat, gender Male, age 6-8 weeks
Conditions: in vivo, po, 0 mg/kg, route oral GAVAGE, dose level Control, vehicle 100 % WATER; for ABSOLUTE BASOPHIL / ABSOLUTE EOSINOPHIL / ABSOLUTE LYMPHOCYTE / ABSOLUTE MONOCYTE / ABSOLUTE SEGMENTED NEUTROPHIL / BASOPHIL / EOSINOPHIL / ERYTHROCYTE COUNT / HEMATOCRIT / HEMOGLOBIN / LEUKOCYTE COUNT / LYMPHOCYTE / MEAN CORPUSCULAR HEMOGLOBIN / MEAN CORPUSCULAR HEMOGLOBIN CONCENTRATION / MEAN CORPUSCULAR VOLUME / MONOCYTE / NEUTROPHIL / NUCLEATED RED BLOOD CELLS / PLATELET COUNT: tissue Blood; for ALANINE AMINOTRANSFERASE / ALBUMIN / ALKALINE PHOSPHATASE / ASPARTATE AMINOTRANSFERASE / BLOOD UREA NITROGEN / CARBON DIOXIDE / CHLORIDE / CHOLESTEROL / CREATINE PHOSPHOKINASE / CREATININE / GLUCOSE / LACTATE DEHYDROGENASE / LIPASE / PHOSPHORUS / POTASSIUM / SODIUM / TOTAL BILIRUBIN / TOTAL PROTEIN / URIC ACID: tissue Plasma

`C[N+](C)(C)CCO.[Cl-]` [CHOLINE CHLORIDE] was tested, and the “ABSOLUTE BASOPHIL” value (72 h, time 3 day) was 0 CELLS/uL, the “ABSOLUTE EOSINOPHIL” value (72 h, time 3 day) was 0 CELLS/uL and the “ABSOLUTE LYMPHOCYTE” value (72 h, time 3 day) was 10386.33 CELLS/uL. For the same compound, the “ABSOLUTE MONOCYTE” value (72 h, time 3 day) was 88.5 CELLS/uL, the “ABSOLUTE SEGMENTED NEUTROPHIL” value (72 h, time 3 day) was 1008.5 CELLS/uL and the BASOPHIL (72 h, time 3 day) was 0%. The EOSINOPHIL (72 h, time 3 day) was 0%, the “ERYTHROCYTE COUNT” value (72 h, time 3 day) was 5.16 x10E6/uL and the HEMATOCRIT (72 h, time 3 day) was 32.43%. For the same compound, the HEMOGLOBIN (72 h, time 3 day) was 12.98 G/DL, the “LEUKOCYTE COUNT” value (72 h, time 3 day) was 11.48 x10E3/uL and the LYMPHOCYTE (72 h, time 3 day) was 92.33%. For the same compound, the “MEAN CORPUSCULAR HEMOGLOBIN” value (72 h, time 3 day) was 25.23 pg, the “MEAN CORPUSCULAR HEMOGLOBIN CONCENTRATION” value (72 h, time 3 day) was 40.08 G/DL and the “MEAN CORPUSCULAR VOLUME” value (72 h, time 3 day) was 62.95 fL. For the same compound, the MONOCYTE (72 h, time 3 day) was 0.67%, the NEUTROPHIL (72 h, time 3 day) was 7% and the “NUCLEATED RED BLOOD CELLS” value (72 h, time 3 day) was 0 /100WBC. For the same compound, the “PLATELET COUNT” value (72 h, time 3 day) was 1016.67 x10E3/uL, the “ALANINE AMINOTRANSFERASE” value (72 h, time 3 day) was 62.17 u/L and the ALBUMIN (72 h, time 3 day) was 3.95 G/DL. The “ALKALINE PHOSPHATASE” value (72 h, time 3 day) was 363.5 u/L, the “ASPARTATE AMINOTRANSFERASE” value (72 h, time 3 day) was 118 u/L and the “BLOOD UREA NITROGEN” value (72 h, time 3 day) was 14.5 mg/dL. For the same compound, the “CARBON DIOXIDE” value (72 h, time 3 day) was 22.83 mmol/L, the CHLORIDE (72 h, time 3 day) was 100.67 MEQ/L and the CHOLESTEROL (72 h, time 3 day) was 66 mg/dL. For the same compound, the “CREATINE PHOSPHOKINASE” value (72 h, time 3 day) was 1308.83 u/L, the CREATININE (72 h, time 3 day) was 0.22 mg/dL and the GLUCOSE (72 h, time 3 day) was 187.5 mg/dL. For the same compound, the “LACTATE DEHYDROGENASE” value (72 h, time 3 day) was 380.17 u/L, the LIPASE (72 h, time 3 day) was 16.17 u/L and the PHOSPHORUS (72 h, time 3 day) was 14.27 mg/dL. The POTASSIUM (72 h, time 3 day) was 6.8 MEQ/L, the SODIUM (72 h, time 3 day) was 142.53 MEQ/L and the “TOTAL BILIRUBIN” value (72 h, time 3 day) was 0.2 mg/dL. For the same compound, the “TOTAL PROTEIN” value (72 h, time 3 day) was 5.68 G/DL, the “URIC ACID” value (72 h, time 3 day) was 2.87 mg/dL and the “ABSOLUTE BASOPHIL” value (120 h, time 5 day) was 0 CELLS/uL. The “ABSOLUTE EOSINOPHIL” value (120 h, time 5 day) was 80 CELLS/uL, the “ABSOLUTE LYMPHOCYTE” value (120 h, time 5 day) was 13301.33 CELLS/uL and the “ABSOLUTE MONOCYTE” value (120 h, time 5 day) was 180.83 CELLS/uL. The “ABSOLUTE SEGMENTED NEUTROPHIL” value (120 h, time 5 day) was 1187.83 CELLS/uL, the BASOPHIL (120 h, time 5 day) was 0% and the EOSINOPHIL (120 h, time 5 day) was 0.5%. For the same compound, the “ERYTHROCYTE COUNT” value (120 h, time 5 day) was 5.54 x10E6/uL, the HEMATOCRIT (120 h, time 5 day) was 35.65% and the HEMOGLOBIN (120 h, time 5 day) was 14.22 G/DL. The “LEUKOCYTE COUNT” value (120 h, time 5 day) was 14.75 x10E3/uL, the LYMPHOCYTE (120 h, time 5 day) was 90.67% and the “MEAN CORPUSCULAR HEMOGLOBIN” value (120 h, time 5 day) was 25.65 pg. The “MEAN CORPUSCULAR HEMOGLOBIN CONCENTRATION” value (120 h, time 5 day) was 39.88 G/DL, the “MEAN CORPUSCULAR VOLUME” value (120 h, time 5 day) was 64.35 fL and the MONOCYTE (120 h, time 5 day) was 1%. The NEUTROPHIL (120 h, time 5 day) was 7.83%, the “NUCLEATED RED BLOOD CELLS” value (120 h, time 5 day) was 0.17 /100WBC and the “PLATELET COUNT” value (120 h, time 5 day) was 1285.33 x10E3/uL. For the same compound, the “ALANINE AMINOTRANSFERASE” value (120 h, time 5 day) was 51.67 u/L, the ALBUMIN (120 h, time 5 day) was 4.08 G/DL and the “ALKALINE PHOSPHATASE” value (120 h, time 5 day) was 391.5 u/L. For the same compound, the “ASPARTATE AMINOTRANSFERASE” value (120 h, time 5 day) was 99.5 u/L, the “BLOOD UREA NITROGEN” value (120 h, time 5 day) was 15.5 mg/dL and the “CARBON DIOXIDE” value (120 h, time 5 day) was 28.33 mmol/L. For the same compound, the CHLORIDE (120 h, time 5 day) was 101.83 MEQ/L, the CHOLESTEROL (120 h, time 5 day) was 67.83 mg/dL and the “CREATINE PHOSPHOKINASE” value (120 h, time 5 day) was 771.33 u/L. The CREATININE (120 h, time 5 day) was 0.23 mg/dL, the GLUCOSE (120 h, time 5 day) was 156.5 mg/dL and the “LACTATE DEHYDROGENASE” value (120 h, time 5 day) was 544.33 u/L. For the same compound, the LIPASE (120 h, time 5 day) was 10.17 u/L, the PHOSPHORUS (120 h, time 5 day) was 12.03 mg/dL and the POTASSIUM (120 h, time 5 day) was 6.81 MEQ/L. The SODIUM (120 h, time 5 day) was 144.13 MEQ/L, the “TOTAL BILIRUBIN” value (120 h, time 5 day) was 0.22 mg/dL and the “TOTAL PROTEIN” value (120 h, time 5 day) was 6 G/DL. The “URIC ACID” value (120 h, time 5 day) was 2.18 mg/dL.
